7 substances from article PMC6868281, “In vivo clonal expansion and phenotypes of hypocretin-specific CD4^+ T cells in narcolepsy patients and controls” (Nature Communications, 2019) can be followed below.

In test [1] the test system is CD4+ T cells from T1N donors. Description: In vitro peptide stimulation of CD4+ T cells with peptide-loaded fixed T2DQ6 cells, then DQ6-peptide tetramer staining. The class given is cell-based, human. The settings on record: for Frequency of corresponding DQ6-peptide tetramer+/CD4+ T cells after in vitro stimulation with the peptide: T2DQ6 pulsed with 1 μM peptide, co-culture with CD4+ T cells of T1N donors, IL-7/IL-2, with vs without peptide, n = 13 donors (HCRT peptides). As to the method: Fig. 3 Tetramer^+/CD4^+ T cells in DQ6^+ donors. a Dot-plots of CD4^+ T cells stimulated in vitro with the indicated peptides followed by staining with the indicated tetramers. Frequencies (%) of tetramer^+/CD4^+ T cells are indicated. b Comparison between frequencies of tetramer^+ T cells from the same T1N donor (paired as indicated) with and without peptide stimulation. Significance (P < 0.05, bolded) is determined using the paired samples t-test (n = 13 donors). c Enrichment (with peptide stimulation vs. without) of DQ6-HCRT56–69 tetramer^+/CD4^+ T cells in HCRT87–100 peptide stimulated culture. d Frequencies or e tetramer-binding ranks (mean index fluorescence intensity) of tetramer^+ T cells from patients and controls (sample information summarized in Table 1) stained with the indicated tetramers. Statistical analysis compares control and patient samples within each tetramer specificity. Significance (P < 0.05, bolded) is determined using the unequal variance t-test. The error bar represents mean ± SEM
To test for the presence of DQ6-HCRTpeptide tetramer^+/CD4^+ T cells, a peptide-loaded antigen-presenting cell (APC) line T2DQ6 (fixed to limit APC proliferation) was co-cultured with T cells for DQ6-restricted antigen stimulation. T2DQ6 was constructed by stable transfection of DQ6 (DQA1*01:02/DQB1*06:02) into T2, a class II-deficient TxB hybrid cell[31]. T2DQ6 cells were maintained in IMDM, GlutaMAX supplemented media (Thermo Fisher Scientific) with 10% HI FBS, 1% penicillin/streptomycin (P/S) and 1 mg/ml G418 (to maintain selective pressure on DQ6 transfectants). To load antigen, T2DQ6 cells were pulsed with peptides (i.e., EBV486–500, HCRT56–69, HCRT87–100, synthesized by Genscript) at 1 μM final concentration and incubated for 6 h at 37 °C. After peptide loading, 10 million T2DQ6 cells were washed with phosphate buffered saline (PBS) and then fixed by incubating with 0.025% glutaraldehyde in 2 ml PBS at RT for 30 s. After the addition of another 2 ml PBS, the cells were incubated for another 10 min at RT. Fixed T2DQ6 was washed twice with PBS and once with complete RPMI (RPMI 1640 medium supplemented with 10% HI human AB serum, 2 mM glutamine and 1% PS, Thermo Fisher Scientific) before mixing with CD4^+ T cells. Human PBMCs frozen in NUNC tubes were thawed quickly at 37 °C and added slowly to 10 ml warm complete RPMI. PBMCs were pelleted and resuspended in cold buffer for CD4^+ T cell isolation. Cells were isolated from the PBMCs by negative selection, using the CD4^+ cell isolation kit, according to the manufacturer’s instructions (Miltenyi Biotec). […]

Test [2] concerns the target soluble DQ6 (HLA-DQA1*01:02/DQB1*06:02) (Homo sapiens, UniProt P01909+P01920, A157G/A45G/C70R/E118A/E183D/E77G/F83G/G63E/H151Q/H199R/H252R/H253Q/I129T/I235V/I88M/INS77G/K197Q/L117V/L119F/L178F/L71W/L74F/L85Q/L91A/L98M/N214S/P87R/Q116E/Q76K/R102G/R240Q/R75S/R78G/S102Y/S185I/S41F/S97I/T121G/T122I/T172A/T86R/V229M/V68A/V73E/Y34C/Y41F/Y58L). The experiment in a line: Peptide competition assay: inhibition of DQ6 binding of biotinylated EBV486–500. The settings on record: test peptide 40 μM, 20 h. As to the method: To identify DQ6-restricted T epitopes in prepro-HCRT (the HCRT precursor), we used a modified version of the peptide-loading assay[31] in which HCRT peptides were tested for the ability to inhibit DQ6-binding of EBV486–500, a known DQ6-binding epitope derived from Epstein-Bar virus. We evaluated overlapping 15-mer peptides, offset by four amino acids (aa), covering the entire prepro-HCRT sequence (Supplementary Data 1). […] These were consistent with in silico peptide-binding predictions using the NetMHCIIpan3.2 software[33] (Supplementary Fig. 1a–c). The nine peptides span five regions (i–v) of prepro-HCRT. A strong binder (>75% competition), HCRT1–15, was within the signal peptide region (i) and contained a 9-aa core, […], previously shown to bind DQ6 by X-ray structure. Two overlapping peptides span the C-terminus of the signal peptide and N-terminus of the secreted HCRT1 neurotransmitter. This region (ii) contained three possible registers as predicted by NetMHCIIpan3.2 using nonamers (Supplementary Fig. 1d). […]
Fig. 2 DQ6-binding cores in prepro-HCRT and their structural impacts. a Thirty overlapping peptides covering prepro-HCRT were added, individually, into a reaction containing soluble DQ6, bio-EBV486–500 peptide, and HLA-DM (a peptide loading catalyst). DQ6-associated bio-EBV486–500 was measured at steady state by ELISA[31]. %Competition = 1−%DQ6/EBV binding. […]

Test [3] relates to TCR27 (TRAJ24+ TCR) in J76-NFATRE-luc Jurkat cells. Description: T cell activation assay using NFAT-RE luciferase reporter, TCR27 Jurkat transfectants with K562-DQ6 APCs. The class given is cell-based, human. Set-up: dose or concentration left out as unconfirmed. The following applies: HCRT peptide, 1 × 10^5 K562-DQ6 APCs + 1 × 10^5 TCR27 J76-NFATRE-luc cells, 37 °C, 1 day; Nano-Glo chemiluminescence. The source says: Fig. 6 Validation of tetramer binding and TCR signaling. a TCRs tested by transfection into Jurkat-luciferase reporter system. b Dot-plots of Jurkat transfectants expressing TCRs as shown in a. Expression of GFP indicates a successful transfection of plasmids directing the expression of TCRs. c Tetramer staining of TCR^+ Jurkat cells with percentages of tetramer^+ cells indicated. d MFIs of the tetramer-associated signal on the surface of TCR^+ cells are compared. e Jurkat cells expressing the indicated TCR were incubated with DQ6-expressing APCs (HLA class II^- K562 cells transfected with DQ6) in the presence of HCRT peptides or control stimuli: PBS (negative) or anti-CD3/anti-CD28 Abs (positive). Luciferase activity reflecting TCR-mediated signaling was measured and analyzed as previously described. […] Significance (P < 0.05, bolded) is determined using t-test comparing the indicated TCR and the TCR control
To encode the entire α/β chains of a candidate TCR, the nucleotide sequences for CDR3α and CDR3β (Supplementary Data 3) were incorporated in frame with the corresponding V(D)J genes (IMGT/V-QUEST[43]). TCRα/β genes were then synthesized and cloned into a plasmid pEF1a-TCRA_2A_TCRB_IRES-AcGFP1 (by GenScript). Each reconstructed plasmid uses a mammalian promoter, EF1a to direct co-expression of α and β chains of one candidate TCR. TCRA and TCRB are separated by the 2A self-cleaving peptide sequence. For selection purposes, the plasmid also encodes the green fluorescence protein (GFP) and neomycin resistance gene, with expression driven by separate promoters. […]
The TCR transfectants of J76-NFATRE-luc cells expresses the NFAT-RE (response element)-luciferase reporter gene allowing the conversion of T cell activation signaling to luciferase activity. […] The co-culture was incubated with various stimuli at 37 °C for 1 day before quantification of the luciferase activity. […] The mixture was then transferred to a flat-bottom white 96-well plate (Costar) for a measurement of chemiluminescence using a plate reader.
(In general: In a reporter assay the amount or activity of a reporter protein is the signal.)

Consider AGNHAAGILTLGKR [HCRT56–69], for which the “Frequency of corresponding DQ6-peptide tetramer+/CD4+ T cells after in vitro stimulation with the peptide” value (shortened to “Frequency”) in test [1] was “significantly increased”.

For the substance “MNLPSTKVSWAAVTL [Hcrt1-15, 15-mer overlapping peptide of prepro-HCRT]”, the “%Competition (inhibition of the indicator EBV peptide binding to DQ6)” value in test [2] (1 μM biotinylated EBV486–500, 25 nM thrombin-cleaved DQ6-CLIP87–101, 100 nM DM, acetate pH 4.6, 37 °C, DELFIA Eu-streptavidin time-resolved fluorescence, %Competition = 1−%DQ6/EBV binding, mean, n = 4) is reported as > 75%.

As to SGNHAAGILTMGRR [HCRT87–100], the “Frequency” value in test [1] is reported as “significantly increased”. For the same substance, the “DQ6-HCRT56–69 tetramer+/CD4+ T cells in HCRT87–100 peptide stimulated culture” value in test [1] (with peptide stimulation vs without, some T1N donors) is given as “in vitro enrichment”. Moreover, in test [3], the “TCR-mediated signaling (luciferase activity) of TCR27 transfectants” value (shortened to “TCR-mediated signaling”) is given as “moderate TCR-mediated signaling”.

Regarding MNLPSTKVSWAAV [HCRT1–13], in test [3], the “TCR-mediated signaling” value is recorded as “null function”.

As for “ALLSSGAAAQPLPDC [Hcrt25-39, 15-mer overlapping peptide of prepro-HCRT]”, the “DQ6 binder class by %Competition” value in test [2] (same assay as E1, pH 4.6, 37 °C) is listed as “strong”.

Take SGNHAAGILTM-NH2 [HCRT87–97-NH2]: in test [3], the “TCR-mediated signaling” value was “stronger signaling”.

As to “EBV486-500: known DQ6-binding epitope derived from Epstein-Barr virus nuclear antigen; positive control peptide [reference compound]”, the “Frequency” value in test [1] is “enrichment”.
